Assay results published in BigSolDB 2.1.

Work on CN1COCN(Cc2cnc(Cl)s2)C1=N[N+](=O)[O-] yielded a solubility (mole fraction) (in 1,4-dioxane, 288.15 K) of 0.00242, a solubility (mole fraction) (in 1,4-dioxane, 293.15 K) of 0.00311 and a solubility (mole fraction) (in 1,4-dioxane, 298.15 K) of 0.00395. It also gave a solubility (mole fraction) (in 1,4-dioxane, 303.15 K) of 0.00496, a solubility (mole fraction) (in 1,4-dioxane, 308.15 K) of 0.00626 and a solubility (mole fraction) (in 1,4-dioxane, 313.15 K) of 0.00763. It also gave a solubility (mole fraction) (in 1,4-dioxane, 318.15 K) of 0.00958, a solubility (mole fraction) (in 1,4-dioxane, 323.15 K) of 0.0117 and a solubility (mole fraction) (in DMAc, 278.15 K) of 0.0654. For the same compound, the solubility (mole fraction) (in DMAc, 283.15 K) was 0.0728, the solubility (mole fraction) (in DMAc, 288.15 K) was 0.0802 and the solubility (mole fraction) (in DMAc, 293.15 K) was 0.0888. For the same compound, the solubility (mole fraction) (in DMAc, 298.15 K) was 0.0976, the solubility (mole fraction) (in DMAc, 303.15 K) was 0.107 and the solubility (mole fraction) (in DMAc, 308.15 K) was 0.118. It also gave a solubility (mole fraction) (in DMAc, 313.15 K) of 0.129, a solubility (mole fraction) (in DMAc, 318.15 K) of 0.14 and a solubility (mole fraction) (in DMAc, 323.15 K) of 0.152. For the same compound, the solubility (mole fraction) (in DMSO, 288.15 K) was 0.0672, the solubility (mole fraction) (in DMSO, 293.15 K) was 0.0776 and the solubility (mole fraction) (in DMSO, 298.15 K) was 0.0885. For the same compound, the solubility (mole fraction) (in DMSO, 303.15 K) was 0.101, the solubility (mole fraction) (in DMSO, 308.15 K) was 0.115 and the solubility (mole fraction) (in DMSO, 313.15 K) was 0.13. For the same compound, the solubility (mole fraction) (in DMSO, 318.15 K) was 0.147, the solubility (mole fraction) (in DMSO, 323.15 K) was 0.164 and the solubility (mole fraction) (in acetonitrile, 278.15 K) was 0.00675. It also gave a solubility (mole fraction) (in acetonitrile, 283.15 K) of 0.00854, a solubility (mole fraction) (in acetonitrile, 288.15 K) of 0.0106 and a solubility (mole fraction) (in acetonitrile, 293.15 K) of 0.0131. For the same compound, the solubility (mole fraction) (in acetonitrile, 298.15 K) was 0.0161, the solubility (mole fraction) (in acetonitrile, 303.15 K) was 0.0196 and the solubility (mole fraction) (in acetonitrile, 308.15 K) was 0.0238. For the same compound, the solubility (mole fraction) (in acetonitrile, 313.15 K) was 0.0288, the solubility (mole fraction) (in acetonitrile, 318.15 K) was 0.0349 and the solubility (mole fraction) (in acetonitrile, 323.15 K) was 0.0414. For the same compound, the solubility (mole fraction) (in water, 278.15 K) was 7.29e-05, the solubility (mole fraction) (in water, 283.15 K) was 9.97e-05 and the solubility (mole fraction) (in water, 288.15 K) was 0.000132. For the same compound, the solubility (mole fraction) (in water, 293.15 K) was 0.000182, the solubility (mole fraction) (in water, 298.15 K) was 0.000241 and the solubility (mole fraction) (in water, 303.15 K) was 0.000322. The solubility (mole fraction) (in water, 308.15 K) was 0.000418, the solubility (mole fraction) (in water, 313.15 K) was 0.000538 and the solubility (mole fraction) (in water, 318.15 K) was 0.000696. For the same compound, the solubility (mole fraction) (in water, 323.15 K) was 0.000885.
